Test system: NIH3T3 fibroblast cells
Assay: Dox internalization in cells incubated in Dox solution (FIG. 7)
Type: cell-based, mice
Conditions: cells incubated 24 and 36 h in 17 μM Dox solution
Description: FIGS. 7A-D provide (A,B) Overlaid optical microscopy and fluorescence images (λex=481 nm) showing extent of Dox internalization in NIH3T3 fibroblast cells after 24 and 36 h incubation in 17 μM Dox solution (for comparison, the Dox concentration that was released from 1-cm^2 nano-patterned PEM to 1-mL solution was ˜14 μM as shown in FIG. 4F). Cells were cultured for 2 days prior to incubation.

COc1cccc2c1C(=O)c1c(O)c3c(c(O)c1C2=O)C[C@@](O)(C(=O)CO)C[C@@H]3O[C@H]1C[C@H](N)[C@H](O)[C@H](C)O1 [Dox, doxorubicin]
time for the drug to penetrate the cell membrane, versus release from PEM: much longer time was needed
